The values that follow come from patent publication US5663298A, “UCK14 compounds” (Kyowa Hakko Kogyo Co., Ltd., priority 1995, dated 1997).

Molecules are shown by their SMILES.

Data set [1] concerns human epidermoid carcinoma A431 cells. In words: Growth inhibition against human epidermoid carcinoma A431 cells (MTT). Type of data set: cell-based. Particulars: 72 hours culture, read-out: IC50 (50% growth inhibitory concentration) A431. The source says:
(§1) Growth inhibition against human epidermoid carcinoma A431 cells and human pancreatic carcinoma PSN-1 cells
(§2) Human epidermoid carcinoma A431 cells (ATCC CRL 1555) were suspended in Dulbecco's modified Eagle's medium (Nissui Pharmaceutical Co., Ltd.) supplemented with 10% fetal bovine serum (Filtron), and human pancreatic carcinoma PSN-1 cells [Biochem. Biophys. Res. Commun. 140, 167 (1986)] were suspended in RPMI-1640 medium (Gibco BRL) supplemented with 5% fetal bovine serum (Filtron). Each cell suspension was put into wells of a 96-well microtiter plate (#167008, Nunc) in an amount of 3×10^3 cells/well, followed by preincubation in a 5% CO2 -incubator at 37° C. for 24 hours. Then, 5mM solutions of UCK14A1, UCK14A2 and UCK14C were diluted stepwise and the resulting solutions were respectively added to the wells in an amount of 50 μl/well (highest final concentration: 1 mM). The cells were cultured in the 5% CO2 -incubator at 37° C. for 72 hours. Five hours before the end of culturing, 50 μl of a solution of MTT [3-(4,5-dimethylthiazo-2-yl)-2,5-diphenyltetrazolium bromide (Sigma Chemical Co., Ltd.)] in the medium (final concentration: 1 mg/ml) was added to each well. After the completion of culturing, DMSO was added to the wells in an amount of 150 μl/well, followed by vigorous stirring with a plate mixer to completely dissolve crystals of MTT-formazan. […]

The test system of data set [2] is human pancreatic carcinoma PSN-1 cells. In words: Growth inhibition against human pancreatic carcinoma PSN-1 cells (MTT). Conditions: 72 hours culture, read-out: IC50 (50% growth inhibitory concentration) PSN-1. Type of data set: cell-based.
Text: as §1, §2

The nature of data set [3]: Solubility (physicochemical properties). Conditions: qualitative, in various solvents. The source says: The physicochemical properties of UCK14 compounds are shown below.

As for `CCC(C)C1C(=O)OC1C(=O)NC1CC1CC(NC(=O)C(C)N)C(=O)O` (stereo not drawn) [UCK14A1], the IC50 in data set [1] was found to be 25.2 µM; in data set [2], 16.1 µM. The Solubility entry in data set [3] is “Soluble in water, methanol and dimethylsulfoxide (DMSO); insoluble in hexane, chloroform and ethyl acetate”.
